ChEMBL document CHEMBL1201862, “PubChem BioAssay data set” (2004)
Activity calls are given as the source filed them.

Key:
Type in all cases: functional
[1] = biological target: Serine/threonine-protein kinase PAK 1 (Homo sapiens, UniProt Q13153)
[2] = biological target: Casein kinase II subunit alpha (Homo sapiens, UniProt P68400)
[3] = biological target: Serine/threonine-protein kinase DCLK1 (Homo sapiens, UniProt O15075);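 note: affinity for DCLK1 (listed as DCAMKL1) measured as one member of a kinome-wide kinase profiling panel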
Sequence of Serine/threonine-protein kinase DCLK1 (O15075 whole entry): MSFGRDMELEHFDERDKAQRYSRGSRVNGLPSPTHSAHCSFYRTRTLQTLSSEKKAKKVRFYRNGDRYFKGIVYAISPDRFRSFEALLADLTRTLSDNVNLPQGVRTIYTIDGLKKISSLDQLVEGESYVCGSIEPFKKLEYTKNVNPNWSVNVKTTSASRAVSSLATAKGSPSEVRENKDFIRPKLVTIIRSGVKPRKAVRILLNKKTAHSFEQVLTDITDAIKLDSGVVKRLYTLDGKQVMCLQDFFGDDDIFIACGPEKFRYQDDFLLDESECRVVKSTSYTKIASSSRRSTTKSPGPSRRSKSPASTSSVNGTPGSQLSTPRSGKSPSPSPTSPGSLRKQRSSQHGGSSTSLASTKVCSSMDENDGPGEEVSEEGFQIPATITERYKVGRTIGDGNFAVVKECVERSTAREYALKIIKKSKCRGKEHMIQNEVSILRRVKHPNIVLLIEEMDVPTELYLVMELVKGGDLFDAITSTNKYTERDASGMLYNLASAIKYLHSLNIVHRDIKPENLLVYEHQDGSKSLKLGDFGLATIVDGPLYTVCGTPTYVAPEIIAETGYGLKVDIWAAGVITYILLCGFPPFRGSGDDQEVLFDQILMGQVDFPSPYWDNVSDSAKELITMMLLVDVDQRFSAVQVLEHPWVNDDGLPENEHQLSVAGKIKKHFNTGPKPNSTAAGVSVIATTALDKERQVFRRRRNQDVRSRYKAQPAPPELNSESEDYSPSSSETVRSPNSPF

[4] = biological target: Calcium/calmodulin-dependent protein kinase type 1 (Homo sapiens, UniProt Q14012)
Sequence of Calcium/calmodulin-dependent protein kinase type 1 (Q14012 whole entry): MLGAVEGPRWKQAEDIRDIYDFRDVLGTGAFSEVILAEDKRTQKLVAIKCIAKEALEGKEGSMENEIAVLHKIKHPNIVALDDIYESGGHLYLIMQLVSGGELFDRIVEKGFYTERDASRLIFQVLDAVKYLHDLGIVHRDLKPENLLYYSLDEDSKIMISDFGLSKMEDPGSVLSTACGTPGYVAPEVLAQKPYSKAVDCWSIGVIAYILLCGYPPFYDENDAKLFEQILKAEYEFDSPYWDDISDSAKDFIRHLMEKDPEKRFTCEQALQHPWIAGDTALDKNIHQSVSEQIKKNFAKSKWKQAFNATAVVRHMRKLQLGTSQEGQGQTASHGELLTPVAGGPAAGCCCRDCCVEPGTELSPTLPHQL

[5] = biological target: Dual specificity tyrosine-phosphorylation-regulated kinase 3 (Homo sapiens, UniProt O43781);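 note: measured as one member of a broad kinase panel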
Sequence of Dual specificity tyrosine-phosphorylation-regulated kinase 3 (O43781 whole entry): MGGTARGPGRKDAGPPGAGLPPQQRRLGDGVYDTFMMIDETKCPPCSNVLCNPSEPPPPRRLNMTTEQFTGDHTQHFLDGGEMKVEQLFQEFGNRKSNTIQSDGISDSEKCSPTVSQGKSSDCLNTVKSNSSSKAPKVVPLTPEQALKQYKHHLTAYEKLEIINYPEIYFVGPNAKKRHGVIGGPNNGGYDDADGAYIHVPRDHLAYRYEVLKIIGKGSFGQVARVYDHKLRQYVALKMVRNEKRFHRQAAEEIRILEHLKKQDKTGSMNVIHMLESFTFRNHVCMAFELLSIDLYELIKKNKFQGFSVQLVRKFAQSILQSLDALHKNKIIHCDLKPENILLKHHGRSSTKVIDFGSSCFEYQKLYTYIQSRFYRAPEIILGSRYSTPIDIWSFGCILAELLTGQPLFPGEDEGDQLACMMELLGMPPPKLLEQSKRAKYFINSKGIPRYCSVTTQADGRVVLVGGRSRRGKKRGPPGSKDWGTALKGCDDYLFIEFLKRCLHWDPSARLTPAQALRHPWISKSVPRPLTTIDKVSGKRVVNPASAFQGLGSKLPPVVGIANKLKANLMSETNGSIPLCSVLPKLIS

[6] = biological target: Megakaryocyte-associated tyrosine-protein kinase (Homo sapiens, UniProt P42679);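 note: affinity measured as one member of a kinase panel (Navigating the Kinome) against MATK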
[7] = biological target: Lymphokine-activated killer T-cell-originated protein kinase (Homo sapiens, UniProt Q96KB5);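 note: value comes from a kinase panel screen in which TOPK was one of the panel members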
Sequence of Lymphokine-activated killer T-cell-originated protein kinase (Q96KB5 whole entry): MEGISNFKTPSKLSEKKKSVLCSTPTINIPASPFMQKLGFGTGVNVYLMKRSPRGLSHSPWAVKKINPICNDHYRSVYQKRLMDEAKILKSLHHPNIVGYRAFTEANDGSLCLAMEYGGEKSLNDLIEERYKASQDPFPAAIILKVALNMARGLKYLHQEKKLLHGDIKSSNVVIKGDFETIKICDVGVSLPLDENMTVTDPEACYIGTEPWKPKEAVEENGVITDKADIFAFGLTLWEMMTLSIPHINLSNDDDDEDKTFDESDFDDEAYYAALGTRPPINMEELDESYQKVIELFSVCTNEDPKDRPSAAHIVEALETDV

[8] = biological target: Proto-oncogene tyrosine-protein kinase ROS (Homo sapiens, UniProt P08922);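 note: ROS1 tested as one member of a kinome-wide kinase panel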
[9] = biological target: Tyrosine-protein kinase Blk (Homo sapiens, UniProt P51451);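 note: obtained as one member of a kinome-wide kinase assay panel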
[10] = biological target: Tyrosine-protein kinase Srms (Homo sapiens, UniProt Q9H3Y6);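 note: SRMS measured as one member of a kinome-wide kinase profiling panel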
Sequence of Tyrosine-protein kinase Srms (Q9H3Y6 whole entry): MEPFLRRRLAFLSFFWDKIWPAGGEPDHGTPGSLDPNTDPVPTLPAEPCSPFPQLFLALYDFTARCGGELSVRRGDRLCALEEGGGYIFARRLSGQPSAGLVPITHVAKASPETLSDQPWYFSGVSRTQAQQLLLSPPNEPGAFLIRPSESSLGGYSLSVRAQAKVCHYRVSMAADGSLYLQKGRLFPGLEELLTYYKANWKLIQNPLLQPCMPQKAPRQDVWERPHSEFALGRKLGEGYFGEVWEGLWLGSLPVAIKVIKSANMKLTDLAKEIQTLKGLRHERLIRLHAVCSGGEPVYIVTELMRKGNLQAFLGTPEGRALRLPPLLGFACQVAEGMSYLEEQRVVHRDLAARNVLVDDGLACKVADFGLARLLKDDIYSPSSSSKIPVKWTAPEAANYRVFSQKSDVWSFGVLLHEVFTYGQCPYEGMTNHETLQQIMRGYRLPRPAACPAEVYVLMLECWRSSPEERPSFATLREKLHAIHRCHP

[11] = biological target: Dual specificity tyrosine-phosphorylation-regulated kinase 4 (Homo sapiens, UniProt Q9NR20)
Sequence of Dual specificity tyrosine-phosphorylation-regulated kinase 4 (Q9NR20 whole entry): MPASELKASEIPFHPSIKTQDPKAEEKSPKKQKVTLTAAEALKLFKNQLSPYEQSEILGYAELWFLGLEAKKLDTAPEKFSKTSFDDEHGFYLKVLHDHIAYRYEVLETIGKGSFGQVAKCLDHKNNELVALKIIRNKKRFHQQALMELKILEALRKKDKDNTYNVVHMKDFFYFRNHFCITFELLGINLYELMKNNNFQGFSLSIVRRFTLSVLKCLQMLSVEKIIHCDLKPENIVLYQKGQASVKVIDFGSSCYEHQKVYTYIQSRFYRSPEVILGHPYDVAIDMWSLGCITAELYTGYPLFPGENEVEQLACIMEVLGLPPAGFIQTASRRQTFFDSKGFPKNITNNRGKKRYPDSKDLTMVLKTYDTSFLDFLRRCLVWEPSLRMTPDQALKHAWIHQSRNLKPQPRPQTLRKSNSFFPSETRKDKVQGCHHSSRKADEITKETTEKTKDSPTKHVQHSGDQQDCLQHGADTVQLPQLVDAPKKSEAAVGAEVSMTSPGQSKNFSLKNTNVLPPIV

[12] = biological target: Receptor tyrosine-protein kinase erbB-2 (Homo sapiens, UniProt P04626); test: Navigating the Kinome. Panel member name: ERBB2
SRSF protein kinase 1 = SRSF protein kinase 1 (Homo sapiens, UniProt Q96SB4);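 note: measured as one member of a kinome-wide kinase profiling panel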
Sequence of SRSF protein kinase 1 (Q96SB4 whole entry): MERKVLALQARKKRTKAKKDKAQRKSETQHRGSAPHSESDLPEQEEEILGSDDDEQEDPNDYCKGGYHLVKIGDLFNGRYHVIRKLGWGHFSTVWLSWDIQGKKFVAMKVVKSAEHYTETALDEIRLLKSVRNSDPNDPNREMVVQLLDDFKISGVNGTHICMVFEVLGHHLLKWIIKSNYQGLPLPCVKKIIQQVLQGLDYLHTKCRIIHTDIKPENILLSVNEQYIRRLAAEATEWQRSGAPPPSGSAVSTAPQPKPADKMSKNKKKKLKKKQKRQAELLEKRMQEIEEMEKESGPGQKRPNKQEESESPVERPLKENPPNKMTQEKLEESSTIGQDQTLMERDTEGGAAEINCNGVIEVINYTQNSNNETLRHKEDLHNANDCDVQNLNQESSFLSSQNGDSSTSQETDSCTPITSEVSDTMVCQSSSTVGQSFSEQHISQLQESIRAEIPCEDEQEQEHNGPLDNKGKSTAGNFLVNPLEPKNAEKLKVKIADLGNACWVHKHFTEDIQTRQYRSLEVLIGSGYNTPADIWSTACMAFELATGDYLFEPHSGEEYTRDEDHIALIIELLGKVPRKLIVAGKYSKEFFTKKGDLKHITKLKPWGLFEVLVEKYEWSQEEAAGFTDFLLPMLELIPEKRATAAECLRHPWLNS

[13] = biological target: T1, Testis-specific serine/threonine-protein kinase 2 (Homo sapiens, UniProt Q96PF2);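 note: part of the Navigating the Kinome panel, target entry STK22B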
T1 sequence (Q96PF2 whole entry): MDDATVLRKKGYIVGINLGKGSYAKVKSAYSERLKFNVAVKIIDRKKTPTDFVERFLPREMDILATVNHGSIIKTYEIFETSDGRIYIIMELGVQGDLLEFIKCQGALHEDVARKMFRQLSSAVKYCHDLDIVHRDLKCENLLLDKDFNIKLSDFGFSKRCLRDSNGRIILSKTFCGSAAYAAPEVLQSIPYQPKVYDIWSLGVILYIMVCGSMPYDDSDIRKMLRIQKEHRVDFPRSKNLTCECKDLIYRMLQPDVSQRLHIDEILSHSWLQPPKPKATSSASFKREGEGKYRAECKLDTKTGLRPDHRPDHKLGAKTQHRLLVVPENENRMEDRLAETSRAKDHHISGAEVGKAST

[14] = biological target: Serine/threonine-protein kinase pim-3 (Homo sapiens, UniProt Q86V86);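 note: value obtained as one member of a broad kinase panel profiling effort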
[15] = biological target: Dual specificity mitogen-activated protein kinase kinase 2 (Homo sapiens, UniProt P36507); test: Navigating the Kinome. Panel member name: MAP2K2
Sequence of Dual specificity mitogen-activated protein kinase kinase 2 (P36507 whole entry): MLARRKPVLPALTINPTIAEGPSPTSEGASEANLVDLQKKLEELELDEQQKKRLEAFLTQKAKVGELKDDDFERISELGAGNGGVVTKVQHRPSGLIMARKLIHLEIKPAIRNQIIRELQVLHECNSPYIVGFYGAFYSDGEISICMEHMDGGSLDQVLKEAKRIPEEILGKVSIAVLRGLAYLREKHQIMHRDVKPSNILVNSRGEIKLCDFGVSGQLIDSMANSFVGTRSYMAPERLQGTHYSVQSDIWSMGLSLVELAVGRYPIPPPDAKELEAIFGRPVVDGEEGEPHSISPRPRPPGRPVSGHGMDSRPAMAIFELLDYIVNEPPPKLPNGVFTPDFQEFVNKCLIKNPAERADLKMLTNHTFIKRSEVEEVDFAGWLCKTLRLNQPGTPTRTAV

Focal adhesion kinase 1 = Focal adhesion kinase 1 (Homo sapiens, UniProt Q05397);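 note: measured as one member of a kinome panel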
[16] = biological target: Dual specificity tyrosine-phosphorylation-regulated kinase 1B (Homo sapiens, UniProt Q9Y463); test: Navigating the Kinome. Panel member name: DYRK1B
[17] = biological target: Rho-associated protein kinase 1 (Homo sapiens, UniProt Q13464);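 note: measured within a broad kinome-wide panel profiling many kinases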
[18] = biological target: Casein kinase I isoform alpha (Homo sapiens, UniProt P48729)
[19] = biological target: Protein kinase C theta type (Homo sapiens, UniProt Q04759); test: Navigating the Kinome. Panel member name: PRKCQ
[20] = biological target: Dual specificity mitogen-activated protein kinase kinase 1 (Homo sapiens, UniProt Q02750); test: Navigating the Kinome. Panel member name: MAP2K1
[21] = biological target: Macrophage-stimulating protein receptor (Homo sapiens, UniProt Q04912); test: Navigating the Kinome. Panel member name: MST1R
Activin receptor type-1 = Activin receptor type-1 (Homo sapiens, UniProt Q04771); test: Navigating the Kinome. Panel member name: ACVR1
[22] = biological target: T2, Tyrosine-protein kinase JAK3 (Homo sapiens, UniProt P52333)
T2 sequence (P52333 whole entry): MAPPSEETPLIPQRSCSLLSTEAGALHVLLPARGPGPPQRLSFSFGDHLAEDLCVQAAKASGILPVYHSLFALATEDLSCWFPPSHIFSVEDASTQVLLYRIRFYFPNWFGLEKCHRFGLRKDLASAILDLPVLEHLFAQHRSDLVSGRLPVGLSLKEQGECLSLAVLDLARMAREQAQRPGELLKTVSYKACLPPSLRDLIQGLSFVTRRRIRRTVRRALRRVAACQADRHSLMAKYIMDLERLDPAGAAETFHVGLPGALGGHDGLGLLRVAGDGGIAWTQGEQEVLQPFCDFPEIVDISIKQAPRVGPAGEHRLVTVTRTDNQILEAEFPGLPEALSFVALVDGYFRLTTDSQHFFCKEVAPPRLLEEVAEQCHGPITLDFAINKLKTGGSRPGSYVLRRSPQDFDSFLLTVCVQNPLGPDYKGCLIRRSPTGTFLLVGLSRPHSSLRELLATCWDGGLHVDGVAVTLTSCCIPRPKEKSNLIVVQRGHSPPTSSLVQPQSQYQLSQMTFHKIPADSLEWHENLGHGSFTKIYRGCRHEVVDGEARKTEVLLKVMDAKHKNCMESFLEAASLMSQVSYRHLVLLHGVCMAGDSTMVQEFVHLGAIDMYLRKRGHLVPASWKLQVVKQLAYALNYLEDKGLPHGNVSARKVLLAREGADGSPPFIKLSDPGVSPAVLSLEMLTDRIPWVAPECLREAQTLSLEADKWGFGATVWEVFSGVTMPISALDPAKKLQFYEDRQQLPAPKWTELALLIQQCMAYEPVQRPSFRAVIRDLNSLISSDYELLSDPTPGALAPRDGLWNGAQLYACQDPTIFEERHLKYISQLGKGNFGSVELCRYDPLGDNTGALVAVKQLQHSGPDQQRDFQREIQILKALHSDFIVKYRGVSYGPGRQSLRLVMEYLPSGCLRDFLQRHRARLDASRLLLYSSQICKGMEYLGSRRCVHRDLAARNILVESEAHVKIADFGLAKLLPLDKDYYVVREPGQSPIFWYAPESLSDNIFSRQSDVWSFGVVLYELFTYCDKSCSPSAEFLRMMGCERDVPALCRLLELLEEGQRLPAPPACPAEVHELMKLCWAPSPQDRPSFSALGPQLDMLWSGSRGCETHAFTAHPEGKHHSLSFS

[23] = biological target: Serine/threonine-protein kinase Nek2 (Homo sapiens, UniProt P51955)
Sequence of Serine/threonine-protein kinase Nek2 (P51955 whole entry): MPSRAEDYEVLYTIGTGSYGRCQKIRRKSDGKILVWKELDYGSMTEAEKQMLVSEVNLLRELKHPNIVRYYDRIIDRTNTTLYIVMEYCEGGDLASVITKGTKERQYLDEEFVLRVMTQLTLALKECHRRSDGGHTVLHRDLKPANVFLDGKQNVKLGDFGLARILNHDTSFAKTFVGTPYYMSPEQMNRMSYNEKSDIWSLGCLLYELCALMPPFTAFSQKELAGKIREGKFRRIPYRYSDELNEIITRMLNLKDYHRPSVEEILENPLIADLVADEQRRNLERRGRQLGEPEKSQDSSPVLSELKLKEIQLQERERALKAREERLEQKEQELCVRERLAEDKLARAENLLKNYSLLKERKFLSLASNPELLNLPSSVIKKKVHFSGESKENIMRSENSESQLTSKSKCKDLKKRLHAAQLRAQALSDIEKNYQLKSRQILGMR

Sequence of Casein kinase II subunit alpha (P68400 whole entry): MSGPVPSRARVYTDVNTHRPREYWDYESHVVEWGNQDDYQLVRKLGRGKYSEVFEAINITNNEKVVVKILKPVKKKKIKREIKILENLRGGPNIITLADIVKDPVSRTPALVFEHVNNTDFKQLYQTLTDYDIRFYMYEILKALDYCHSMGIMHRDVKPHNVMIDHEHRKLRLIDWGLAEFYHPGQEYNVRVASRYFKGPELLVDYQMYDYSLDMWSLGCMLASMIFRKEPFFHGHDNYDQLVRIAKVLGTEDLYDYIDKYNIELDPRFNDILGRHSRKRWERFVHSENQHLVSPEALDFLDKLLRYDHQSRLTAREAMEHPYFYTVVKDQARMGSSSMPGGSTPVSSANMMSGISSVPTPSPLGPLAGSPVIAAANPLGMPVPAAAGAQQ

Row | Ki [15] | Ki (Focal adhesion kinase 1) | Ki [16] | Ki [17] | Ki [18] | Compound | Ki [1] | Ki [2] | Ki [3] | Ki [4] | Ki [5] | Ki [6] | Ki [7] | Ki [8] | Ki [9] | Ki [10] | Ki [11] | Ki [12] | Ki (SRSF protein kinase 1) | Ki [13] | Ki [14] | further results
1 |  |  |  |  |  | COC(C(=O)N1Cc2[nH]nc(NC(=O)c3ccc(N4CCN(C)CC4)cc3)c2C1)c1ccccc1 (configuration not stated) | > 10 µM (inactive) | > 6.31 µM (inactive) | 0.0398 µM (active) | > 2.51 µM (inactive) | > 6.31 µM (inactive) | > 2 µM (inactive) | > 10 µM (inactive) | 0.00794 µM (active) | 0.0398 µM (active) | 0.0501 µM (active) | > 7.94 µM (inactive) | > 1.58 µM (inactive) | > 7.94 µM (inactive) | > 1.58 µM (inactive) | > 7.94 µM (inactive) | 
2 | 25.1 µM (active) | 50.1 µM (active) | 2 µM (active) | 0.794 µM (active) | 10 µM (active) | CC(C)(O)c1cn(-c2ccc3[nH]ncc3c2)nn1 |  |  |  |  |  |  |  |  |  |  |  |  |  |  |  | Ki [19]: 39.8 µM (active); Ki [20]: 20 µM (active); Ki [21]: 39.8 µM (active); Ki (Activin receptor type-1): 79.4 µM (active)
3 |  |  |  |  | 0.0501 µM (active) | NC1CCC(Nc2nccc(-c3c[nH]c4ncccc34)n2)CC1 (configuration not stated) | 7.94 µM (active) | 2.51 µM (active) | 1 µM (active) | > 1.26 µM (inactive) | 0.0631 µM (active) | > 2 µM (inactive) | 0.631 µM (active) | > 2 µM (inactive) | > 1.58 µM (inactive) | > 1.58 µM (inactive) | 1.58 µM (active) | > 1.58 µM (inactive) | 1 µM (active) | 0.794 µM (active) | 0.2 µM (active) | Ki [22]: 0.398 µM (active); Ki [23]: > 10 µM (inactive)
4 | 15.8 µM (active) | 63.1 µM (active) | 0.1 µM (active) | 0.398 µM (active) |  | OCc1cc(-c2ccc3[nH]ncc3c2)on1 |  |  |  |  |  |  |  |  |  |  |  |  |  |  |  | Ki [19]: 12.6 µM (active); Ki [22]: 100 µM (active); Ki [20]: 10 µM (active); Ki [21]: 39.8 µM (active); Ki [23]: 39.8 µM (active); Ki (Activin receptor type-1): 20 µM (active)
